Source: paper PMC6009982, “Diaryl ethers with carboxymethoxyphenacyl motif as potent HIV-1 reverse transcriptase inhibitors with improved solubility” (Journal of Enzyme Inhibition and Medicinal Chemistry, 2017)
Values after ≈ are worked out from the molar mass of the structure shown. Like-named read-outs stand apart in the source and are kept apart here. Marks after values point to notes of the source that are not given here.

Columns and labels:
HIV-1 RT = biological target: T1, HIV-1 RT (Human immunodeficiency virus type 1 group M subtype B, UniProt P04585); assay: HIV RT inhibitory activity, colorimetric Reverse Transcriptase Assay kit (Roche); type: biochemical
T1 construct: Because HIV-1 reverse transcriptase (RT) has a low fidelity; purchased Roche, Basel, Switzerland
Description: HIV RT inhibitory activity of the new compounds was measured using the colorimetric Reverse Transcriptase Assay kit (Roche, Basel, Switzerland). […] Averaged results from at least two measurements were used to obtain an inhibition curve. IC50 values were obtained by interpolating the curve using non-linear regression.

[1] = Aqueous solubility by weighing dried aliquots; type: physicochemical; conditions: ultrapure deionised water, room temperature, pH =7
Description: Substances were dissolved in ultrapure deionised water at room temperature up to concentrations of 50 g/L. Solutions were centrifuged and their aliquots were transferred into weighed glass vials (d = 0.01 mg). The samples were dried under reduced pressure and the vials were weighed again. The solubility was calculated from mass difference divided by sample volume.

SupT1 cells = assay: Cytotoxicity from cell numbers in non-infected SupT1 cultures; type: cell-based; conditions: concentration at which toxicity is observed in 10-fold titration series
Description: (§1) CD4^+ T cells were harvested from normal donors and cultured in Roswell Park Memorial Institute medium (RPMI) supplemented with 2 mM L-glutamine (Life Technologies, Merelbeke, Belgium), 10% (v/v) heat-inactivated foetal calf serum (Hyclone, Thermo Fisher Scientific, Waltham, MA), 100 U/mL penicillin and 100 µg/mL streptomycin (Life Technologies), 20 ng/mL interleukin-2 (IL-2; specific activity 10 U/ng, Peprotech, London, UK), and with 1 µg/mL phytohemagglutinin (PHA) mitogen (Thermo Fisher Scientific), 72 h prior to infection, as described earlier. SupT1 cells were maintained at maximum 500,000 cells/mL, in Iscove’s Modified Dulbecco’s Medium (IMDM) supplemented with 2 mM L-glutamine (Life Technologies) and 10% (v/v) heat-inactivated foetal calf serum (Hyclone, Thermo Fisher Scientific, Waltham, MA), as described earlier.
(§2) Lyophilised compound was dissolved in dimethyl sulfoxide to a concentration of 5 mM, and further diluted in cell culture medium (SupT1: IMDM and CD4^+ T cells: RPMI). Cells were incubated 2 h prior infection in appropriate medium as described above, now also supplemented with diluted compound. Subsequently, cells (SupT1: 50,000 per 96 well, CD4^+ T cells: 250,000 per 96 well) were infected with HIV (HIV NL4–3-GFP-I, an infectious virus expressing green fluorescent protein (GFP) from gfp-IRES-nef mRNA expressed from the nef locus, as described earlier. Medium was as described above, now also supplemented with diluted compound (For CD4^+ T cells, PHA was left out). Medium was refreshed after 24 h, keeping compound and supplement concentrations constant. After 72 h, cells were harvested, measured by flow cytometry for GFP expression and counted, using a MACSQuant flow cytometer (Miltenyi Biotec, Bergisch Gladbach, Germany). Infection rate measured by GFP expression was between 6 and 20%. Cell numbers were used to measure cytotoxicity (cell numbers in non-infected cultures supplemented with compound were compared to cell numbers obtained in parallel cultures without compound added: a reduction with more than 10% was considered to indicate cytotoxicity).
First, toxicity of the compounds was determined in SupT1 cells. Since even minor toxicity affects the support of viral replication by the cell, compounds should be active well below threshold toxic concentration (i.e. concentration at which toxicity is observed in 10-fold titration series).

[2] = system: HIV NL4-3-GFP-I in SupT1 cells; assay: Infection assay in SupT1 cells, GFP flow cytometry; type: cell-based, HIV-1; conditions: for Antiviral activity: SupT1 cells, at 10-fold lower concentration than threshold toxic concentration
Description: as §1, §2

[3] = ref Janssen et al.[15]; cited from earlier work
[4] = HIV-1 RT, 2 ng enzyme, at least two measurements, read-out: IC50
[5] = thermodynamic from solid, read-out: Solubility

Compound	IC50 (HIV-1 RT; [4])	Solubility [1, 5]	Threshold toxicity (SupT1 cells)	IC50 (HIV-1 RT)	Antiviral activity [2]	Solubility [1]	IC50 ([2]; Human immunodeficiency virus 1, NL43, SUP-T1, read-out: IC50 (infection rate), reference run in parallel)	Solubility [3]
N#Cc1cc(Cl)cc(Oc2cc(OCC(=O)c3ccc(OCC(=O)O)cc3)ccc2Cl)c1 [Compound 7a]	1.23 ± 0.05 µM	13.1 mg/mL (≈ 27.7 mM)	5 µM	–	–	–	–	–
O=C([O-])COc1ccc(C(=O)COc2ccc(Cl)c(Oc3cc(Cl)cc(Cl)c3)c2)cc1.[K+] [Compound 7b]	–	4.3 mg/mL	50 µM	6.75 ± 0.5 µM	+	–	–	–
N#Cc1cc(Cl)cc(Oc2cc(Cl)cc(OCC(=O)c3ccc(OCC(=O)[O-])cc3)c2)c1.[K+] [Compound 7c]	8.3 ± 1.3 µM	–	50 µM	–	–	>50.0 mg/mL	–	–
N#Cc1cc(Cl)cc(Oc2cccc(OCC(=O)c3ccc(OCC(=O)[O-])cc3)c2)c1.[K+] [Compound 7d]	9.78 ± 0.67 µM	–	50 µM	–	–	>50.0 mg/mL	–	–
Cc1cc(OCC(=O)[O-])ccc1C(=O)COc1ccc(Cl)c(Oc2cc(Cl)cc(C#N)c2)c1.[K+] [Compound 7f]	4.71 ± 0.43 µM	–	>50 µM	–	+	8.9 mg/mL	–	–
Cc1cc(C(=O)COc2ccc(Cl)c(Oc3cc(Cl)cc(C#N)c3)c2)ccc1OCC(=O)[O-].[K+] [Compound 7g]	0.65 ± 0.03 µM	–	50 µM	–	+	3.8 mg/mL	–	–
N#Cc1cc(Cl)cc(Oc2ccc(Cl)cc2OCC(=O)c2ccc(OCC(=O)O)cc2)c1 [Compound 8a]	23.4 ± 1.6 µM	> 50 mg/mL	50 µM	–	–	–	–	–
Cc1cc(OCC(=O)[O-])ccc1C(=O)COc1cc(Cl)ccc1Oc1cc(Cl)cc(C#N)c1.[K+] [Compound 8d]	4.7 ± 0.7 µM	–	50 µM	–	–	14.4 mg/mL	–	–
Cc1cc(C(=O)COc2cc(Cl)ccc2Oc2cc(Cl)cc(C#N)c2)ccc1OCC(=O)[O-].[K+] [Compound 8e]	3.07 ± 0.22 µM	–	50 µM	–	+	39.9 mg/mL	–	–
N#Cc1cc(Cl)cc(Oc2cc(Cl)ccc2OCC(=O)c2ccc(Oc3ccc(OCC(=O)[O-])cc3)cc2)c1.[K+] [Compound 8f]	1.27 ± 0.05 µM	–	5 µM	–	–	>50.0 mg/mL	–	–
Cc1ccnc2c1NC(=O)c1cccnc1N2C1CC1 [NVP, nevirapine, reference compound]	–	–	50 µM	–	+	–	0.04 µM	–
Cc1cc(/C=C/C#N)cc(C)c1Nc1ccnc(Nc2ccc(C#N)cc2)n1 [RPV, rilpivirine, reference compound]	0.32 ± 0.04 µM	–	0.5 µM	–	+	–	–	0.00002 ^b g/L
